# Legend:
# [1] = test system: HIV-1; details: 12 weeks, p<0.05; cited from earlier work
# [2] = test system: LTB4; assay: Monocyte release of LTB4; format: cell-based; details: Homo sapiens, effect INHIB (Inhibition), zymosan A
# Method: (§1) Monocyte Release of PGE2, LTB4, and PAF:
# (§2) Monocytes isolated as described above, were washed and resuspended in RPMl containing 5 mg/ml HSA at 2×10^6 cells/ml and added to wells of a 48-well plates. The cells were allowed to adhere for 2 hours then washed in HBSS-BSA-HEPES buffer. Test materials were added at four concentrations (175 μl) for 60 minutes; then the monocytes were stimulated by addition of […] zymosan A (175 μl of 2× desired final concentration added). Supernatant medium was collected from the wells after 90 minutes incubation and stored at -20° C. until assayed. Supernatants were assayed for PGE2, LTB4 or PAF using specific scintillation proximity assays (SPA).
# [3] = test system: TNFα; assay: Monocyte release of TNF-α; format: cell-based; details: Homo sapiens, effect INHIB (Inhibition), LPS 100 ng/ml
# [4] = test system: SUPEROXIDE; assay: Monocyte superoxide anion (O2) release; format: cell-based, human; parameters: key: NE: No effect; NT: Not tested; INHIB: Inhibition; STIM: Stimulation; TC: Tolerated Concentration; details: zymosan A
# Method: Monocyte Superoxide Anion (O2) Release:
# Monocytes are prepared as described above and resuspended to 5×10^6 /ml in HBSS containing 10 Mm HEPES, 2 g/l glucose, 0.1% BSA, Ph 7.2. To each well of a 96-well flat bottom, tissue culture plate is added 100 μl of cell suspension and 100 μl of buffer or test materials. Samples are run in quadruplicate. The plate is incubated for 60 minutes at 37° C. followed by the addition of 50 μl of buffer containing cytochrome C (5 mg/ml; type VI, horse heart, Sigma) and bovine liver catalase (1500 U/ml; Sigma) in the presence of zymosan A (ZYM); 750 μg/ml; Sigma). The plate is incubated an additional 120 minutes at 37° C. during which the absorbance at 550 nm is monitored using a microplate reader incorporating dedicated software for kinetic analysis (Molecular Devices; Menlo Park, Calif.).
# [5] = test system: PBMC; assay: PBMC proliferation to mitogen PHA; format: cell-based; details: Homo sapiens, effect INHIB (Inhibition), PHA 1.0 μg/ml
# Method: (§3) Unless otherwise described the medium for human cell culture assays is defined as follows: RPMI-1640 is supplemented with 100 U/ml penicillin, 100 μg/ml streptomycin, 2 mM L-glutamine; 1 mM Na pyruvate; 1% MEM non-essential amino acids and 25 mM HEPES; (all from GIBCO, Gaithersburg, Md.). Complete medium is defined as medium supplemented with 5% pooled, heat-inactivated (56° C., 30 minutes) human AB serum (Pel-freeze, Brown Deer, Wis.).
# Human Peripheral Blood Mononuclear Cell (PBMC) Isolation:
# Venous blood is obtained from healthy volunteers and mixed with an equal volume of sterile isotonic saline/10 mM HEPES and placed into 50 ml conical polypropylene tubes in 30 ml aliquots. Each aliquot of diluted blood is underlaid with 20-25 ml of sterile Lymphocyte Separation Medium (LSM; Organon-Technika, Durham, N.C.). The tubes are centrifuged at 400 g for 40 minutes at room temperature. […] Cell concentrations for each donor are determined by counting in an haematology analyser (Serono-Baker). […]
# PBMC are adjusted to 4×10^6 /ml in complete medium. […] The contents of the wells are harvested onto glass fibre filters using a multiple automated sample harvester (Tomtec), and the incorporated ^3 H-thymidine determined by liquid scintillation spectrophotometry and represented an cpm (counts per minute) incorporated per well.
# [6] = test system: IL1β; assay: Monocyte release of IL-1β; format: cell-based, human; parameters: key: NE: No effect; NT: Not tested; INHIB: Inhibition; STIM: Stimulation; TC: Tolerated Concentration; details: LPS 100 ng/ml
# [7] = test system: IL1ra; assay: Monocyte release of IL-1 receptor antagonist; format: cell-based, human; parameters: key: NE: No effect; NT: Not tested; INHIB: Inhibition; STIM: Stimulation; TC: Tolerated Concentration
# [8] = test system: PBMC; assay: Two-way mixed lymphocyte reaction (MLR); format: cell-based; details: Homo sapiens, effect INHIB (Inhibition)
# Method: as §3
# Two-Way Mixed Lymphocyte Reaction (MLR):
# PBMC are prepared as described for the mitogen assays, but resuspended to 2×10^6 cells/ml in complete medium. Fifty μl of cell suspension from two different individuals is then added to each well of a 96-well flat bottom tissue culture plate. An additional 100 μl of complete medium, dexamethasone or test compounds are then added to each well, the plates are incubated for 6 days at 37° C., and then pulsed with ^3 H-thymidine and harvested as previously described.
# [9] = MTS; format: cell-based; details: printed in the EC50 column; effect TC; read-out: TC Tolerated Concentration (MTS)
# [10] = test system: PAF; assay: Monocyte release of PAF; format: cell-based, human; parameters: key: NE: No effect; NT: Not tested; INHIB: Inhibition; STIM: Stimulation; TC: Tolerated Concentration; details: zymosan A
# Method: as §1, §2
# [11] = test system: TISSUE FACTOR; assay: Monocyte procoagulant activity (Tissue Factor); format: cell-based; details: Homo sapiens, effect INHIB (Inhibition)
# Method: Purified monocytes prepared as described above are suspended at 4×10^6 cells/ml in complete medium. To each well of a 48-well flat bottomed tissue culture plate is added 0.125 ml of cell suspension. Test materials (diluted in complete medium at 2× the desired final concentration) are added in 250 μl volumes to each well. Control wells receive 250 μl of complete medium or 250 μl of IL-4 (diluted to×2 the desired final concentration of 50 ng/ml). All samples are tested at four concentrations in the presence or absence of 100 ng/ml LPS (125 μl of 4× desired final concentration added) and incubated at 37° C. in humidified 5% CO2, for 16 hours. At this time, culture supernatants are aspirated off, and the unattached cells and cell debris are removed by a 2 minute spin in a microcentrifuge at 10,000 g.l The release of cytokines and growth factors is determined in the cell-free supernatants using ELISA capture assays. In this way, testing for IL-1β, TNF-α, IL-1 receptor antagonist, IL-6, IL-8, GM-CSF and PDGF is conducted.
# Monocyte Procoagulant Activity (Tissue Factor):
# The adhered monocytes remaining on the 48-well tissue culture plates after removal of the supernatants above, are used to measure levels of Tissue Factor production. The cells are solubilized overnight at 4° C. in 10% Triton-×100 in PBS, diluted to 1% Triton-×100 with PBS then assayed by ELISA for Tissue Factor.
# [12] = test system: GM-CSF; assay: Monocyte release of GM-CSF; format: cell-based; details: Homo sapiens, effect INHIB (Inhibition), LPS 100 ng/ml
# [13] = test system: IL8; assay: Monocyte release of IL-8; format: cell-based, human; parameters: key: NE: No effect; NT: Not tested; INHIB: Inhibition; STIM: Stimulation; TC: Tolerated Concentration; details: LPS 100 ng/ml
# [14] = test system: IL6; assay: Monocyte release of IL-6; format: cell-based, human; parameters: key: NE: No effect; NT: Not tested; INHIB: Inhibition; STIM: Stimulation; TC: Tolerated Concentration; details: LPS 100 ng/ml
# [15] = test system: Monocytes; assay: Inhibition of monocyte chemotaxis; format: cell-based, human; parameters: key: NE: No effect; NT: Not tested; INHIB: Inhibition; STIM: Stimulation; TC: Tolerated Concentration; details: chemoattractant FMLP
# Method: Inhibition of Monocyte Chemotaxis:
# Monocytes are prepared as previously described, and resuspended at 5×10^6 cells/ml in HBSS, 0.1% BSA (HBSS-BSA). Fluorophore labeling of the cells is carried out by adding calcein-AM to the above cells at a final concentration of 2 μM. Following a 30 minute incubation at 37° C. in humidified 5% CO2, the labeled monocytes are washed twice and incubated in a range of dilutions of the test materials for 60 minutes at 37° C. in humidified 5% CO2. The pre-treated, calcein-AM loaded cells are then added in triplicate to the wells of the top compartment of a NeuroProbe (Cabin, John, M.D.) 96-well chemotaxis chamber (2×10^5 cells/well) and permitted to migrate through a 10 μm thick bonded polycarbonate membrane (5 μm porosity; NeuroProbe Inc; Cabin, John, M.D.) towards the wells of the lower compartment containing the chemoattractant (FMLP) at 5×10^-9 M. After a 90 minute incubation at 37° C. in a humidified chamber, the wells of the upper chambers are aspirated, the monocyte-associated membrane removed, non-migrating cells wiped off and the filters permitted to air dry to 15 minutes. The number of cells migrating through the membranes are quantified by measuring the fluorescent intensity of the migrating cells in a fluorescent microplate reader (CytoFluor 2300, Millipore Corp., Bedford, Mass.)
# [16] = LDH; format: cell-based; details: printed in the EC50 column; effect TC; read-out: TC Tolerated Concentration (LDH)
# [17] = test system: TNF-α; details: cited from earlier work
# [18] = test system: latent HIV-1 in a monocytoid (U1) cell line; details: cited from earlier work
# [19] = test system: HIV-1 in peripheral blood mononuclear cells; details: advanced HIV-1 infection and AIDS; cited from earlier work
smiles,measurement,setting,value
Cc1cn([C@H]2C[C@H](N=[N+]=[N-])[C@@H](CO)O2)c(=O)[nH]c1=O [zidovudine],mean HIV-1 viral load (levels with either agent alone),[1],8- to 9 fold
CC(=O)CCCCn1c(=O)c2c(ncn2C)n(C)c1=O [Pentoxifylline],mean HIV-1 viral load (levels with either agent alone),[1],8- to 9 fold
Nc1nc(Cl)c2ncn(CCCCB(O)O)c2n1 [2-Amino-6-chloro-9-(4-dihydroxyborylbutyl)purine],EC50,[2],90.5 µM
same,EC50,[3],0.57 µM
same,EFFECT (SUPEROXIDE),[4],NE
same,EC50,[5],100 µM
same,EFFECT (IL1β),[6],NE
same,EFFECT (IL1ra),[7],NE
same,EC50,[8],50 µM
same,MNTC,[9],100 µM
same,EFFECT (PAF),[10],NE
same,EC50,[11],2.1 µM
same,EC50,[12],6.8 µM
same,EFFECT (IL8),[13],NE
same,EFFECT (IL6),[14],NE
same,EFFECT (CHEMOTAXIS),[15],NE
same,MNTC,[16],100 µM
O=C1CCC(N2C(=O)c3ccccc3C2=O)C(=O)N1 (centres unmarked) [Thalidomide],agonist-induced TNF-α protein and mRNA production,[17],reduction
same,activation of latent HIV-1,[18],suppress the activation of latent HIV-1
same,"inhibition of activation of virus in PBMC, patients",[19],16 out of 17

# — patent US5643893A, “N-substituted-(Dihydroxyboryl)alkyl purine, indole and pyrimidine derivatives, useful as inhibitors of inflammatory cytokines” (Macronex, Inc., priority 1994, dated 1997)
